In patent publication US20250066376A1, “OPIOID RECEPTOR ANTAGONIST PRODRUGS” (Nirsum Laboratories, Inc., priority 2024, published 2025):

Test: Solubility of naloxone and naltrexone prodrug compounds
Format: physicochemical
Settings: for Solubility in water: lower limit of aqueous solubility; for Solubility in cottonseed oil / Solubility in miglyol 812N / Solubility in sesame oil: solubility study in oil excipients at 50 mg/ml (base equivalents)
Excerpt: Example 12: Solubility of Naloxone and Naltrexone Prodrug Compounds
Table 12 and Table 13 report the solubility data for the naloxone and naltrexone prodrug compounds, respectively.

| Compound | Solubility in water | Solubility in cottonseed oil (naloxone prodrugs (Table 12)) | Solubility in miglyol 812N (naloxone prodrugs (Table 12)) | Solubility in sesame oil (naloxone prodrugs (Table 12)) | Solubility in cottonseed oil (naltrexone prodrugs (Table 13)) | Solubility in miglyol 812N (naltrexone prodrugs (Table 13)) | Solubility in sesame oil (naltrexone prodrugs (Table 13)) |
| --- | --- | --- | --- | --- | --- | --- | --- |
| C=CCN1CC[C@]23c4c5ccc(OCOC(=O)CCCCC)c4O[C@H]2C(=O)CC[C@@]3(O)[C@H]1C5 [III-2, [(3R,4aS,7aR,12bS)-3-allyl-4a-hydroxy-7-oxo-2,4,5,6,7a,13-hexahydro-1H-4,12-methanobenzofuro[3,2-e]isoquinoline-9-yl]oxymethyl hexanoate] | Solubility in water: <0.001 mg/mL | In cottonseed oil: >50.48 mg/ml | In miglyol 812N: <50.28 mg/ml | In sesame oil: <50.44 mg/ml |  |  |  |
| CCCCOC(=O)OCOc1ccc2c3c1O[C@H]1C(=O)CC[C@@]4(O)[C@@H](C2)N(CC2CC2)CC[C@]314 [IV-4, [(3R,4aS,7aR,12bS)-3-(cyclopropylmethyl)-4a-hydroxy-7-oxo-2,4,5,6,7a,13-hexahydro-1H-4,12-methanobenzofuro[3,2-e]isoquinoline-9-yl]oxymethyl butyl carbonate] | Solubility in water: <0.001 mg/mL |  |  |  | In cottonseed oil: <50.12 mg/mL | In miglyol 812N: <50.41 mg/mL | In sesame oil: <50.07 mg/mL |
| CCCCCCCCOC(=O)OCOc1ccc2c3c1O[C@H]1C(=O)CC[C@@]4(O)[C@@H](C2)N(CC2CC2)CC[C@]314 [IV-6, [(3R,4aS,7aR,12bS)-3-(cyclopropylmethyl)-4a-hydroxy-7-oxo-2,4,5,6,7a,13-hexahydro-1H-4,12-methanobenzofuro[3,2-e]isoquinoline-9-yl]oxymethyl octyl carbonate] | Solubility in water: <0.001 mg/mL |  |  |  | In cottonseed oil: >50.28 mg/mL | In miglyol 812N: >50.11 mg/mL | In sesame oil: >50.43 mg/mL |
| C=CCN1CC[C@]23c4c5ccc(OCOC(=O)CCCCC)c4O[C@H]2C(=O)CC[C@@]3(O)[C@H]1C5 [III-1, [(3R,4aS,7aR,12bS)-3-allyl-4a-hydroxy-7-oxo-2,4,5,6,7a,13-hexahydro-1H-4,12-methanobenzofuro[3,2-e]isoquinoline-9-yl]oxymethyl hexanoate] | Solubility in water: <0.001 mg/mL | In cottonseed oil: >50.03 mg/ml | In miglyol 812N: <50.53 mg/ml | In sesame oil: >50.01 mg/ml |  |  |  |
| CCCCCCOC(=O)OCOc1ccc2c3c1O[C@H]1C(=O)CC[C@@]4(O)[C@@H](C2)N(CC2CC2)CC[C@]314 [IV-5, [(3R,4aS,7aR,12bS)-3-(cyclopropylmethyl)-4a-hydroxy-7-oxo-2,4,5,6,7a,13-hexahydro-1H-4,12-methanobenzofuro[3,2-e]isoquinoline-9-yl]oxymethyl hexyl carbonate] | Solubility in water: <0.001 mg/mL |  |  |  | In cottonseed oil: <50.19 mg/mL | In miglyol 812N: <50.24 mg/mL | In sesame oil: >50.31 mg/mL |
